# Reference: patent publication US5466671A, “Apidaecin-type peptide antibiotics with improved activities and/or different antibacterial spectrum” (priority 1994, dated 1995)
# Residues, ends and D or L forms follow the SMILES beside them.
# Columns and labels:
# M. morganii = experiment: Minimal inhibitory concentration (liquid culture); conditions: inoculum 400 CFU/ml; a-b = highest concentration with growth - lowest without growth
# Shigella dysenteriae = type: cell-based; conditions: agar plate, cecropin P1 5 nanomoles/well (column head: 500p), 3 mm wells
# Campylobacter jejuni = experiment: Inhibition zone assay (agar plate); type: cell-based; conditions: cecropin P1 5 nanomoles/well (column head: 500p), 3 mm wells
# E. coli 25922 = experiment: Minimal inhibitory concentration (liquid culture); conditions: inoculum 1100 CFU/ml; a-b = highest concentration with growth - lowest without growth
# Neisseria gonorrhoeae = type: cell-based; conditions: cecropin P1, 5 nanomoles/well
# Xanthomonas maltophilia = type: cell-based; conditions: cecropin P1, 5 nanomoles/well
# A. calcoaceticus = experiment: Minimal inhibitory concentration (liquid culture); conditions: inoculum 16 × 10^6 CFU/ml; a-b = highest concentration with growth - lowest without growth
# Salmonella typhi = type: cell-based; conditions: agar plate, cecropin P1 5 nanomoles/well (column head: 500p), 3 mm wells
# Salmonella typhimurium = experiment: Inhibition zone assay (agar plate); type: cell-based; conditions: agar plate, 3 mm wells
# Haemophilus ducreyi = type: cell-based; conditions: cecropin P1, 5 nanomoles/well
# [1] = test system: Acinetobacter calcoaceticus; experiment: Inhibition zone assay (agar plate); type: cell-based; conditions: agar plate, 3 mm wells
# Klebsiella pneumoniae = experiment: Inhibition zone assay (agar plate); type: cell-based; conditions: agar plate, 3 mm wells
# [2] = test system: E. coli strain 11775Apid^R; conditions: 11775Apid^R vs ATCC 11775; cited from earlier work
# Helicobacter pylori = type: cell-based; conditions: cecropin P1, 5 nanomoles/well
# Y. enterocolitica = experiment: Minimal inhibitory concentration (liquid culture); conditions: inoculum 5000 CFU/ml; a-b = highest concentration with growth - lowest without growth
# [3] = test system: Bacteriodes melaninogenicus; type: cell-based; conditions: cecropin P1, 5 nanomoles/well
# E. coli 23802 = experiment: Minimal inhibitory concentration (liquid culture); conditions: inoculum 5000 CFU/ml; a-b = highest concentration with growth - lowest without growth
# S. typhimurium = experiment: Minimal inhibitory concentration (liquid culture); conditions: inoculum 8 × 10^6 CFU/ml; a-b = highest concentration with growth - lowest without growth
# Haemophilus influenzae = experiment: Inhibition zone assay (agar plate); type: cell-based; conditions: 3 mm wells
# Escherichia coli (K514) = type: cell-based; conditions: agar plate, cecropin P1 5 nanomoles/well (column head: 500p), 3 mm wells
# E. coli Apid^R [4] = experiment: Minimal inhibitory concentration (liquid culture); type: cell-based; conditions: a-b = highest concentration with growth - lowest without growth
# Description: For details see `Experimental Procedures`.
# E. coli 11775 [5] = experiment: Minimal inhibitory concentration (liquid culture); conditions: a-b = highest concentration with growth - lowest without growth
# N. meningiditis = type: cell-based; conditions: cecropin P1, 5 nanomoles/well
# Gardnerella vaginalis = type: cell-based; conditions: cecropin P1, 5 nanomoles/well
# Enterobacter cloacae = experiment: Inhibition zone assay (agar plate); type: cell-based; conditions: agar plate, 3 mm wells
# [6] = test system: bacterial strains used in this study; experiment: Minimal inhibitory concentration, inoculum effect; type: cell-based; conditions: any of the bacterial strains used
# Yersinia enterocolitica = experiment: Inhibition zone assay (agar plate); type: cell-based; conditions: 3 mm wells
# Legionella pneumophila = type: cell-based
# [7] = test system: Agrobacterium tumefaciens; experiment: Inhibition zone assay (agar plate); type: cell-based; conditions: agar plate, 3 mm wells
# Proteus mirabilis = type: cell-based; conditions: cecropin P1, 5 nanomoles/well
# Rhizobium meliloti = experiment: Inhibition zone assay (agar plate); type: cell-based; conditions: 3 mm wells
# Pseudomonas syringae = experiment: Inhibition zone assay (agar plate); type: cell-based; conditions: agar plate, 50 nanomoles/well, 3 mm wells
# E. coli 11775 [8] = conditions: against 10^7 cells/ml, parental strain ATCC 11775; cited from earlier work
# [9] = test system: Escherichia coli (ATCC11775); experiment: Inhibition zone assay (agar plate); type: cell-based; conditions: agar plate, 50 nanomoles/well, 3 mm wells
# Erwinia amylovora = experiment: Inhibition zone assay (agar plate); type: cell-based; conditions: agar plate, 50 nanomoles/well, 3 mm wells
# E. coli Apid^R [10] = conditions: cited from earlier work
# Morganella morganii = experiment: Inhibition zone assay (agar plate); type: cell-based; conditions: 50 nanomoles/well, 3 mm wells
# [11] = cecropin P1 5 nanomoles/well (column head: 500p)
structure (smiles),measurement,setting,value
"CC[C@H](C)[C@H](NC(=O)CNC(=O)[C@H](CCC(=O)O)NC(=O)[C@H](CO)NC(=O)[C@@H](NC(=O)[C@H](CCCNC(=N)N)NC(=O)[C@H](CCCCN)NC(=O)[C@H](CCCCN)NC(=O)[C@H](C)NC(=O)[C@H](CO)NC(=O)[C@H](CC(N)=O)NC(=O)[C@H](CCC(=O)O)NC(=O)[C@H](CC(C)C)NC(=O)[C@H](CCCCN)NC(=O)[C@H](CCCCN)NC(=O)[C@H](C)NC(=O)[C@@H](NC(=O)[C@H](CCCCN)NC(=O)[C@H](CO)NC(=O)[C@H](CC(C)C)NC(=O)[C@H](Cc1c[nH]c2ccccc12)NC(=O)[C@@H](N)CO)[C@@H](C)O)[C@@H](C)CC)C(=O)N[C@@H](C)C(=O)N[C@H](C(=O)N[C@@H](C)C(=O)N[C@H](C(=O)N[C@@H](CCC(N)=O)C(=O)NCC(=O)NCC(=O)N1CCC[C@H]1C(=O)N[C@@H](CCCNC(=N)N)C(=O)O)[C@@H](C)CC)[C@@H](C)CC [CP-1, cecropin P1, reference compound] (H-SWLSKTAKKLENSAKKRISEGIAIAIQGGPR-OH)",minimal inhibitory concentration (MIC),M. morganii,0.2 to 1 µg/mL
same,inhibition zone diameter (number of plus signs),Shigella dysenteriae,++++ ((++++) 15-19 mm)
same,inhibition zone diameter (number of plus signs),Campylobacter jejuni,+++ ((+++) 10-14 mm)
same,minimal inhibitory concentration (MIC),E. coli 25922,0.2 to 1 µg/mL
same,measurable activity on agar plate,Neisseria gonorrhoeae,not
same,measurable activity on agar plate,Xanthomonas maltophilia,measurable activity
same,minimal inhibitory concentration (MIC),A. calcoaceticus,2 to 10 µg/mL
same,inhibition zone diameter (number of plus signs),Salmonella typhi,+++++ ((+++++) 20 or more min)
same,inhibition zone diameter (number of plus signs),Salmonella typhimurium; [11],++ ((++) 7-9 mm)
same,measurable activity on agar plate,Haemophilus ducreyi,measurable activity
same,inhibition zone diameter (number of plus signs),[1]; [11],++ ((++) 7-9 mm)
same,inhibition zone diameter (number of plus signs),Klebsiella pneumoniae; [11],+ ((+) 5-6 mm)
same,susceptibility of mutant compared to parental strain,[2],equally susceptible
same,measurable activity on agar plate,Helicobacter pylori,not
same,minimal inhibitory concentration (MIC),Y. enterocolitica,0.2 to 1 µg/mL
same,measurable activity on agar plate,[3],measurable activity
same,minimal inhibitory concentration (MIC),E. coli 23802,0.2 to 1 µg/mL
same,minimal inhibitory concentration (MIC),S. typhimurium,1 to 2 µg/mL
same,inhibition zone diameter (number of plus signs),Haemophilus influenzae; [11],++++ ((++++) 15-19 mm)
same,inhibition zone diameter (number of plus signs),Escherichia coli (K514),+ ((+) 5-6 mm)
same,minimal inhibitory concentration (MIC),E. coli Apid^R [4]; inoculum 12 × 10^6 CFU/ml,0.2 to 1 µg/mL
same,minimal inhibitory concentration (MIC),E. coli Apid^R [4]; inoculum 1000 CFU/ml,0.2 to 1 µg/mL
same,minimal inhibitory concentration (MIC),E. coli 11775 [5]; inoculum 16 × 10^6 CFU/ml,0.2 to 1 µg/mL
same,minimal inhibitory concentration (MIC),E. coli 11775 [5]; inoculum 1200 CFU/ml,0.2 to 1 µg/mL
same,measurable activity on agar plate,N. meningiditis,not
same,measurable activity on agar plate,Gardnerella vaginalis,not
same,inhibition zone diameter (number of plus signs),Enterobacter cloacae; [11],++++ ((++++) 15-19 mm)
same,inoculum effect,[6],No inoculum effect
same,inhibition zone diameter (number of plus signs),Yersinia enterocolitica; [11],+++++ ((+++++) 20 or more min)
same,inhibition zone diameter (number of plus signs),Legionella pneumophila,+++++ (key: (+) 5-6 mm; (++) 7-9 mm; (+++) 10-14 mm; (++++) 15-19 mm; (+++++) 20 or more min; (-) denotes that no inhibition was observed)
same,inhibition zone diameter (number of plus signs),[7]; [11],++++ ((++++) 15-19 mm)
same,measurable activity on agar plate,Proteus mirabilis,not
same,inhibition zone diameter (number of plus signs),Rhizobium meliloti; [11],+ ((+) 5-6 mm)
"CC[C@H](C)[C@H](NC(=O)[C@H](Cc1ccc(O)cc1)NC(=O)[C@@H](NC(=O)[C@@H]1CCCN1C(=O)[C@H](CCCNC(=N)N)NC(=O)[C@H](CC(N)=O)NC(=O)[C@H](CC(N)=O)NC(=O)CN)C(C)C)C(=O)N1CCC[C@H]1C(=O)N[C@@H](CCC(N)=O)C(=O)N1CCC[C@H]1C(=O)N[C@@H](CCCNC(=N)N)C(=O)N1CCC[C@H]1C(=O)N1CCC[C@H]1C(=O)N[C@@H](Cc1c[nH]cn1)C(=O)N1CCC[C@H]1C(=O)N[C@@H](CCCNC(=N)N)C(=O)N[C@@H](CC(C)C)C(=O)O [Hb Ib, reference compound] (H-GNNRPVYIPQPRPPHPRL-OH)",minimal inhibitory concentration (MIC),M. morganii,1 to 5 µg/mL
same,inhibition zone diameter (number of plus signs),Pseudomonas syringae,++++ ((++++) 15-19 mm)
same,MIC value,E. coli 11775 [8],0.1 µg/mL
same,inhibition zone diameter (number of plus signs),[9],++++ ((++++) 15-19 mm)
same,inhibition zone diameter (number of plus signs),Erwinia amylovora,++++ ((++++) 15-19 mm)
same,minimal inhibitory concentration (MIC),E. coli 25922,0.5 to 1 µg/mL
same,minimal inhibitory concentration (MIC),A. calcoaceticus,10 to 20 µg/mL
same,inhibition zone diameter (number of plus signs),Salmonella typhimurium; 50 nanomoles/well,+++ ((+++) 10-14 mm)
same,resistance of mutant relative to parental strain (higher apidaecin concentrations),E. coli Apid^R [10]; 11775Apid^R vs ATCC 11775,approximately 500 fold
same,MIC value,"E. coli Apid^R [10]; against 10^7 cells/ml, mutant strain 11775Apid^R",50 µg/mL
same,inhibition zone diameter (number of plus signs),[1]; 50 nanomoles/well,+ ((+) 5-6 mm)
same,inhibition zone diameter (number of plus signs),Klebsiella pneumoniae; 50 nanomoles/well,+++ ((+++) 10-14 mm)
same,minimal inhibitory concentration (MIC),Y. enterocolitica,1 to 5 µg/mL
same,minimal inhibitory concentration (MIC),E. coli 23802,10 to 20 µg/mL
same,minimal inhibitory concentration (MIC),S. typhimurium,1 to 5 µg/mL
same,inhibition zone diameter (number of plus signs),Haemophilus influenzae; 50 nanomoles/well,+++ ((+++) 10-14 mm)
same,minimal inhibitory concentration (MIC),E. coli Apid^R [4]; inoculum 12 × 10^6 CFU/ml,> 40 µg/mL
same,minimal inhibitory concentration (MIC),E. coli Apid^R [4]; inoculum 1000 CFU/ml,20 to 40 µg/mL
same,minimal inhibitory concentration (MIC),E. coli 11775 [5]; inoculum 16 × 10^6 CFU/ml,1 to 5 µg/mL
same,minimal inhibitory concentration (MIC),E. coli 11775 [5]; inoculum 1200 CFU/ml,< 0.05 µg/mL
same,inhibition zone diameter (number of plus signs),Enterobacter cloacae; 50 nanomoles/well,+++ ((+++) 10-14 mm)
same,inhibition zone diameter (number of plus signs),Yersinia enterocolitica; 50 nanomoles/well,+++ ((+++) 10-14 mm)
same,inhibition zone diameter (number of plus signs),[7]; 50 nanomoles/well,+++++ ((+++++) 20 or more min)
same,inhibition zone diameter (number of plus signs),Rhizobium meliloti; 50 nanomoles/well,+++++ ((+++++) 20 or more min)
same,inhibition zone diameter (number of plus signs),Morganella morganii,+ ((+) 5-6 mm)
